Measured values taken from patent US9481673B2, “6-alkynyl-pyridine derivatives” (Boehringer Ingelheim International GmbH, priority 2014, dated 2016).
Converted amounts (≈) assume the structure as drawn.

Key:
cIAP1 BIR3 = cIAP1 BIR3 (Homo sapiens (Human), UniProt Q13490); assay: cIAP1 BIR3 binding assay (DELFIA), BIR3-SMAC peptide interaction; conditions: (S)-isomers; BIR3 domain 10 nM, SMAC peptide 10 nM; read-out: cIAP1 BIR-3 IC50
P450 2C19 = P450 2C19 (Homo sapiens (Human), UniProt P33261); assay: Cytochrome P450 isoenzyme inhibition assay, hydroxylation of Mephenytoin; type: in vitro ADME
P450 2C8 = P450 2C8 (Homo sapiens (Human), UniProt P10632); assay: Cytochrome P450 isoenzyme inhibition assay, deethylation of Amodiaquine; type: in vitro ADME
P450 2C9 = P450 2C9 (Homo sapiens (Human), UniProt P11712); assay: Cytochrome P450 isoenzyme inhibition assay, hydroxylation of Diclofenac; type: in vitro ADME
P450 2D6 = P450 2D6 (Homo sapiens (Human), UniProt P10635); assay: Cytochrome P450 isoenzyme inhibition assay, demethylation of Dextromethorphan; type: in vitro ADME
P450 3A4 = P450 3A4 (Homo sapiens (Human), UniProt P08684); assay: Cytochrome P450 isoenzyme inhibition assay, hydroxylation of Midazolam; type: in vitro ADME
[1] = Solubility measurement (DMSO solution precipitation method); type: physicochemical; conditions: aqueous buffer, kinetic from dmso stock; for solubility kinetic at 24 h: (S)-isomers, McIlvaine buffer pH 6.8, 24 h shaking at ambient temperature, read-out: Sol pH 6.8; for solubility at 24 h: McIlvaine buffer, measured examples from WO 2013/127729 (Table 1), pH 6.8
[2] = (S)-isomers, human liver microsomes, 37° C.
[3] = measured examples from WO 2013/127729 (Table 1)

SMILES	IC50 (cIAP1 BIR3) [µM]	IC50 (P450 2C19; [2]) [µM]	IC50 (P450 2C8; [2]) [µM]	IC50 (P450 2C9; [2]) [µM]	IC50 (P450 2D6; [2]) [µM]	IC50 (P450 3A4; [2]) [µM]	solubility kinetic at 24 h [1] [mg/mL]	IC50 (P450 2C19; [3]) [µM]	IC50 (P450 2C8; [3]) [µM]	IC50 (P450 2C9; [3]) [µM]	IC50 (P450 2D6; [3]) [µM]	IC50 (P450 3A4; [3]) [µM]	solubility at 24 h [1] [mg/mL]
CN[C@@H](C)C(=O)Nc1ccc(-c2c(-c3ccnc(C)c3)nc3cc(C)ccn23)c(C#Cc2ccc3c(C)nccc3c2)n1 [(S)-2, (2S)-N-{5-[7-methyl-2-(2-methylpyridin-4-yl)imidazo[1,2-a]-pyridin-3-yl]-6-[2-(1-methylisoquinolin-6-yl)ethynyl]pyridin-2-yl}-2-(methylamino)-propanamide]	0.001	1.9	0.9	> 50	> 50	> 50	0.008 (≈ 14.1 µM)	–	–	–	–	–	–
CN[C@@H](C)C(=O)Nc1ccc(-c2c(-c3cccnc3OC)nc3cc(Cl)ccn23)c(C#Cc2ccc3c(C)nccc3c2)n1 [(S)-15, (2S)-N-{5-[7-chloro-2-(2-methoxypyridin-3-yl)imidazo[1,2-a]-pyridin-3-yl]-6-[2-(1-methylisoquinolin-6-yl)ethynyl]pyridin-2-yl}-2-(methylamino)-propanamide]	0.002	32	2.2	19	–	> 50	0.02 (≈ 33.2 µM)	–	–	–	–	–	–
CNC(C)C(=O)Nc1ccc(-c2c(-c3ccncc3)nc3cc(C)ccn23)c(C#Cc2ccc(-c3ccon3)cc2)n1 (stereo not shown) [Ex 82, reference compound]	–	–	–	–	–	–	–	4.8	0.3	0.4	2.2	2.3	–
CNC(C)C(=O)Nc1ccc(-c2c(-c3ccncc3)nc3cc(C)ccn23)c(C#Cc2ccccc2)n1 (stereo not shown) [Ex 185, reference compound]	–	–	–	–	–	–	–	16	1.7	4.8	2.7	3	0.06 (≈ 123 µM)

Further compounds by falling IC50 (P450 2C19; [3]), results first:

IC50 (cIAP1 BIR3) [µM]	IC50 (P450 2C19; [2]) [µM]	IC50 (P450 2C8; [2]) [µM]	IC50 (P450 2C9; [2]) [µM]	IC50 (P450 2D6; [2]) [µM]	IC50 (P450 3A4; [2]) [µM]	solubility kinetic at 24 h [1] [mg/mL]	IC50 (P450 2C19; [3]) [µM]	IC50 (P450 2C8; [3]) [µM]	IC50 (P450 2C9; [3]) [µM]	IC50 (P450 2D6; [3]) [µM]	IC50 (P450 3A4; [3]) [µM]	solubility at 24 h [1] [mg/mL]	SMILES
–	–	–	–	–	–	–	4.3	0.5	0.4	5.2	2.1	–	CNC(C)C(=O)Nc1ccc(-c2c(-c3ccncc3)nc3cc(C)ccn23)c(C#Cc2ccc3nc(C)ccc3c2)n1 (stereo not shown) [Ex 64, reference compound]
–	–	–	–	–	–	–	2.9	4.9	0.7	3.3	> 50	–	CNC(C)C(=O)Nc1ccc(-c2c(-c3ccncc3)nc3cc(C)ccn23)c(C#Cc2ccc3c(c2)OCC(=O)N3C)n1 (stereo not shown) [Ex 94, reference compound]
–	–	–	–	–	–	–	2.8	1.2	0.9	3.4	4	0.008 (≈ 14.1 µM)	CNC(C)C(=O)Nc1ccc(-c2c(-c3ccncc3)nc3cc(C)ccn23)c(C#Cc2ccc3c(ccc(=O)n3C)c2)n1 (stereo not shown) [Ex 81, reference compound]
